Like-named read-outs stand apart in the source and are kept apart here.
What was measured:
MOLM-13 = experiment: Long term proliferation assay (Table 3A), MOLM-13; assay type: cell-based; conditions: Homo sapiens
Description: (§1) Example 5b: IC50 determination of compounds of invention in various cell lines (Long Term Proliferation Assay)
(§2) The following 5 cell lines are used or can be used for the long term proliferation assay.
(§3) Compounds of invention are tested in the 5 suspension lines by 14-day long-term proliferation assay.
(§4) The compound is tested in 10-pt dose titration (client will determine the starting concentration and the dilution scheme) and the final DMSO concentration is kept at 0.2%.
(§5) Vehicle and media control are also included. All treatments are done in triplicate.
(§6) 3 plates are used for each cell line and 15 plates are used for the 5 cell lines.
(§7) • 1) On Day 0, in a flat bottom 96-well plate, add 100 μL of cells per well at the densities optimized. • 2) Prepare compounds in DMSO at 500× final concentration. Dilute the compounds with DMSO at the dilution. • 3) Dilute the compounds in media at 3×final concentration. Add 50 μL of compound or DMSO at 3× final concentration to each well. Final volume in each well is 150 μL, and final concentration of DMSO is 0.2%. Also include 3 untreated control wells, by adding 50 μL of media alone. 4) Incubate plates for 96 hours. • 5) Count the cells using the Acumen, with capabilities for 96-well plates. Pipette cells up and down to mix in each well, and add desired volume of cells to a new flat bottom poly-D-lysine 96-well plate. Add Calcein AM at 1 μM final concentration. Let cells sit at RT for 10 mins followed by a quick spin to get cells settled on the bottom of the wells. Incubate the plate for additional 40 mins in the incubator. Take out the plate and read by Acumen. Calculate the cell numbers taken into account the dilution factors. • 6) Split the master plate. To do this take the total viable cell count calculated using step 5). Take the average of the replicates for each dose in order to be used in splitting the cells. • 7) Use a 96 well V-bottom plate to spin down the cells to remove old media and compound to split the cells. Based on the split ratio place the proper amount of media and cells into the V-bottom plate, and spin the plate at 1100 rpm for 5 minutes. • 8) Following the spin remove the media, careful not to disturb the cellpellet. • 9) Re-suspend pellet in 100 μL fresh media, and add to a new 96-well flat bottom plate. • 10) Add fresh compound, in the same manner as Step 3). • 11) Incubate plates for 72 hours. Repeat steps 5)-10) on Day 7. • 12) Incubate plates for 96 hours. Repeat Step 5)-10) on Day 11. • 13) Incubate 72 hours and repeat step 5) to take a final count. • 14) Data Analysis
(§8) To calculate growth for days 4, 7, 11, and 14: • Calculate the split factor for day 4 to 7, day 7 to 11, and day 11-14.

MV-4-11 = experiment: Long term proliferation assay (Table 3A), MV-4-11; assay type: cell-based; conditions: Homo sapiens, MV4-11
Description: as §1, §2, §3, §4, §5, §6, §7, §8

HL-60 = experiment: Proliferation study, CellTiterGlo, 4 days (Example 102), HL-60; assay type: cell-based; conditions: HL-60, 4 days treatment; for HL-60 % max: maximal inhibition; for IC50: Homo sapiens, 96 h, CellTiterGlo
From the text: (§9) The objective of the study was to evaluate the ability of representative compounds of the present invention, inhibitors of Menin/MLL interaction to inhibit cell proliferation. The proliferation inhibitory effect was investigated in two human MLL-leukemia cells selected on the bases of MLL fusion protein and listed in Table 102. HL-60 cell line was used as negative control.
(§10) ATP is present in all metabolically active cells and is considered as a marker for cell viability and proliferation. The metabolic cell activity was determined using the CellTiter-Glo kit from Promega, an ATP monitoring system based on the production of luminescence by the reaction of ATP with added UltraGlo® recombinant luciferase (Kawano et al., 2016), according to the supplier's experimental recommendations.
(§11) The described assay evaluates the ability of 4 representative compounds to inhibit the cell proliferation in the human MLL-leukemia cells plus a negative control cell line.
(§12) The assay provides potency values (IC50) for each test compound at a single time point Day 4 (T4).
(§13) Seven concentrations of the compounds (2.00E-05-6.67E-06-2.22E-06-7.41E-07-2.47E-07-8.23E-08-2.74E-08M), were assessed in duplicate in an individual test occasion in all the cell lines. MI-503 (Borkin et al., 2015) was used as reference compound and was tested at the same concentrations as the NCEs. 100% of proliferation is represented by the untreated cells (0.2% DMSO). The cell growth was monitored up to 4 days in culture.
(§14) MV4-11, MOLM-13 and HL-60 cells (see Table 2) were maintained in RPMI-1640 medium (Invitrogen, Cat. n. 618700, Batch n. 1965930) supplemented with 10% of Heat Inactivated FBS (Invitrogen, Cat n. 10500, Batch n. 08Q8078K) and 1% Pen-Strep (Invitrogen, Cat. N. 15140, Batch n. 1910859) and cultured at 37° C. in a humidified incubator with 5% CO2. All the cell lines grow in suspension and the cell density was maintained in a range of 2×10^5-1×10^6 viable cells/ml. Cells were pelleted at 130 g×5 min and conditioned medium was used to dilute the cell suspension.
(§15) Test items were dissolved in glass vials at 10 mM in DMSO with purity ≥99.9% (Sigma, D8418, batch n. SHBH4245V) and stored at −20° C. in 1.5 mL Eppendorf tubes.
(§16) Serial dilutions 1 to 3 in DMSO 100% were prepared starting from a 10 mM stock solutions to generate 7 points concentration response curve (CRC).
(§17) For each plate to test, one 0.4 μL copy plate and four 0.3 μL copy plates were then stamped into 96-well plates not treated for cell adhesion (Sarstedt—cat.no. 82.1581.001) by acoustic liquid Handling, Echo, at a concentration which was 500 fold the final assay concentration. Stamped plates were stored at −20° C. The final concentrations for the reference compound, MI-503, and the test items were: 2.00E-05, 6.67E-06, 2.22E-06, 7.41E-07, 2.47E-07, 8.23E-08 and 2.74E-08 M.
(§18) Cells were plated in 96-well flat bottom microtiter plates at cell density of 15,000 cells/ml for HL-60, 1000 cells/ml for MOLM-13 and 10,000 cell/ml for MV4-11. Cells were treated with 0.2% DMSO (Sigma, D8418, batch n. SHBH4245V) or serial dilutions of compounds (0.027 μM-20 μM) in DMSO (0.2% final concentration). Cells were incubated in a 5% CO2 incubator at 37° C. for 4 days. A CellTiterGlo viability assay (Promega) was employed. Luminescence was read by using VictorV (Perkin Elmer) multilabel plate reader using the standard protocol for luminescence in 96 well plate. The experiment was performed in duplicate.
(§19) Data were expressed as % of inhibition compared to the 0.2% DMSO negative control, and was calculated as follows: […]
(§20) CRCs were analysed by GraphPad and IC50 values were calculated by non-linear regression using 4 parameter-logistic equation. IC50 (μM) values were reported in the final data table. The curve fittings were performed leaving free all the parameters. Any constrain were reported in the results table.

MV4-11 (MLL-AF4) = experiment: Proliferation study, CellTiterGlo, 4 days (Example 102), MV4-11; assay type: cell-based, human; conditions: MV4-11, 4 days treatment; for IC50: Homo sapiens, MV4-11, 96 h, CellTiterGlo; for MV4-11 (MLL-AF4) % max: maximal inhibition
From the text: as §9, §10, §11, §12, §13, §14, §15, §16, §17, §18, §19, §20

MOLM-13 (MLL-AF9) = experiment: Proliferation study, CellTiterGlo, 4 days (Example 102), MOLM-13; assay type: cell-based, human; conditions: MOLM-13, 4 days treatment; for IC50: Homo sapiens, 96 h, CellTiterGlo; for MOLM-13 (MLL-AF9) % max: maximal inhibition
From the text: as §9, §10, §11, §12, §13, §14, §15, §16, §17, §18, §19, §20

menin = menin (Homo sapiens (Human), UniProt O00255); experiment: Kd (Table 3A); assay type: binding
Chain of menin (O00255 whole entry, species assumed): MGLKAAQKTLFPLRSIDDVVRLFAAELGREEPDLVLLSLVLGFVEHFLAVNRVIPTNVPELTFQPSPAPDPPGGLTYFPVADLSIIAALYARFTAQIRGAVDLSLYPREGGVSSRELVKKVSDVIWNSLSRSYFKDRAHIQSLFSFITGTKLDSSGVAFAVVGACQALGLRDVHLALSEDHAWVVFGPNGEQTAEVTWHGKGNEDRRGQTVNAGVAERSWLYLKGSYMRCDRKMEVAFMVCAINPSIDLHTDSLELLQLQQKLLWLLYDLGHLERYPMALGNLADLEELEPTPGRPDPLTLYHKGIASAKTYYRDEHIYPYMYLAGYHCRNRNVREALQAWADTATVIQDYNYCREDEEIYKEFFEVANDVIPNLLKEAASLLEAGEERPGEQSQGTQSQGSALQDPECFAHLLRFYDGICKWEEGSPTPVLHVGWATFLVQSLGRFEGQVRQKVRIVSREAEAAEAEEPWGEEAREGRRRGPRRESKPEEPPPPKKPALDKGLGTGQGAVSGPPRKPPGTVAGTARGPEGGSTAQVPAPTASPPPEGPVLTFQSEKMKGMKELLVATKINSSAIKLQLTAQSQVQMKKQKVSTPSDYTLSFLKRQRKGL

[1] = 96 h, MOLM-13, Day 4, read-out: MOLM-13 Day 4 IC50
[2] = 264 h, MOLM-13, Day 11, read-out: MOLM-13 Day 11 IC50
[3] = MV-4-11, Day 4, read-out: MV-4-11 Day 4 IC50
[4] = MV-4-11, Day 11, read-out: MV-4-11 Day 11 IC50
[5] = read-out: HL-60 pIC50 (converted)
[6] = read-out: MV4-11 (MLL-AF4) IC50
[7] = read-out: MV4-11 (MLL-AF4) pIC50 (converted)
[8] = read-out: MOLM-13 (MLL-AF9) IC50
[9] = read-out: MOLM-13 (MLL-AF9) pIC50 (converted)

Structure (SMILES) | IC50 (MOLM-13; [1]) | IC50 (MOLM-13; [2]) | IC50 (MV-4-11; [3]) | IC50 (MV-4-11; [4]) | IC50 (HL-60; read-out: HL-60 IC50) | IC50 (HL-60; [5]) | IC50 (MV4-11 (MLL-AF4); [6]) | IC50 (MV4-11 (MLL-AF4); [7]) | IC50 (MOLM-13 (MLL-AF9); [8]) | IC50 (MOLM-13 (MLL-AF9); [9]) | Kd (menin) | HL-60 % max (HL-60) | MV4-11 (MLL-AF4) % max (MV4-11 (MLL-AF4)) | MOLM-13 (MLL-AF9) % max (MOLM-13 (MLL-AF9))
CC(C)c1c(-c2cccnc2)noc1NC(=O)Nc1ccc(-c2cc3c(N4CCOCC4)ncnc3[nH]2)cc1 [Compound 6, 1-{4-[4-(morpholin-4-yl)-7H-pyrrolo[2,3-d]pyrimidin-6-yl]phenyl}-3-[4-(propan-2-yl)-3-(pyridin-3-yl)-1,2-oxazol-5-yl]urea] | 178 nM | 50 nM | 229 nM | 74 nM |  |  |  |  |  |  |  |  |  | 
O=C(Cc1cc(-c2cccnc2)no1)Nc1ccc(-c2cc3c(N4CCOCC4)ncnc3[nH]2)cc1 [Compound 5, N-{4-[4-(morpholin-4-yl)-7H-pyrrolo[2,3-d]pyrimidin-6-yl]phenyl}-2-[3-(pyridin-3-yl)-1,2-oxazol-5-yl]acetamide] | 115 nM | 32 nM | 129 nM | 66 nM |  |  |  |  |  |  |  |  |  | 
CC(C)c1cc(-c2cc3c(N4CCOCC4)ncnc3[nH]2)ccc1NC(=O)Nc1cc(-c2cccnc2)no1 [Compound 7, 1-{4-[4-(morpholin-4-yl)-7H-pyrrolo[2,3-d]pyrimidin-6-yl]-2-(propan-2-yl)phenyl}-3-[3-(pyridin-3-yl)-1,2-oxazol-5-yl]urea] | 933 nM | 871 nM | 891 nM | 631 nM |  |  |  |  |  |  |  |  |  | 

Second part, led by results:

IC50 (MOLM-13; [1]) | IC50 (MOLM-13; [2]) | IC50 (MV-4-11; [3]) | IC50 (MV-4-11; [4]) | IC50 (HL-60; read-out: HL-60 IC50) | IC50 (HL-60; [5]) | IC50 (MV4-11 (MLL-AF4); [6]) | IC50 (MV4-11 (MLL-AF4); [7]) | IC50 (MOLM-13 (MLL-AF9); [8]) | IC50 (MOLM-13 (MLL-AF9); [9]) | Kd (menin) | Structure (SMILES) | HL-60 % max (HL-60) | MV4-11 (MLL-AF4) % max (MV4-11 (MLL-AF4)) | MOLM-13 (MLL-AF9) % max (MOLM-13 (MLL-AF9))
310 nM |  | 220 nM |  | 360 nM | 363 nM | 220 nM | 224 nM | 310 nM | 309 nM | 2700 ± 4000 nM | O=C(Cc1cc(-c2cccnc2)n[nH]1)Nc1ccc(-c2cc3c(N4CCOCC4)ncnc3[nH]2)cc1 [Compound 10, N-{4-[4-(morpholin-4-yl)-7H-pyrrolo[2,3-d]pyrimidin-6-yl]phenyl}-2-[3-(pyridin-3-yl)-1H-pyrazol-5-yl]acetamide] | 65% | 100% | 94%
1230 nM |  | 910 nM |  | 2750 nM | 2750 nM | 910 nM | 912 nM | 1230 nM | 1230 nM |  | Cc1cn(-c2ncnc3[nH]c(-c4ccc(NC(=O)Cc5cc(-c6cccnc6)n[nH]5)cc4)cc23)cn1 [Compound 13, N-{4-[4-(4-methyl-1H-imidazol-1-yl)-7H-pyrrolo[2,3-d]pyrimidin-6-yl]phenyl}-2-[3-(pyridin-3-yl)-1H-pyrazol-5-yl]acetamide] | 112% | 105% | 101%

From patent publication US20240140953A1, “INHIBITORS OF MENIN-MLL INTERACTION” (BIOMEA FUSION, INC., priority 2018, published 2024)
